Source: patent publication US8945549B2, “Methods of treating antinociceptive tolerance” (Saint Louis University, priority 2010, dated 2015)

Key:
[1] = system: Male Sprague Dawley rats; experiment: Thermal hyperalgesia (Hargreaves paw-withdrawal latency) in rats with chronic s.c. morphine or saline infusion; format: in vivo, rat; settings: for development of morphine-induced hyperalgesia: daily i.th for 6 days with s.c. morphine infusion, Myr 0.3, FB1 1, D609 1, DMS 0.3, SK-1 0.3 μM/day; for effect on paw-withdrawal latencies: drug alone vs Veh-Sal; for effect on paw-withdrawal latencies / Paw-Withdrawal Latency: day 6; for Paw-Withdrawal Latency: drug given alone i.th daily over 6 days to saline-infused rats, mean ± SEM; for effect on hindpaw withdrawal latencies when given alone: daily i.th 3 μM/day, saline-infused rats, vs vehicle group
Description: (§1) Osmotic pump implantation. Rats, under light isoflurane anesthesia, were subcutaneously implanted (in the interscapular region) with osmotic pumps (Alzet 2001; Alza, Mountain View Calif.), to deliver saline at 1 μl/h or morphine at 75 μg μl^−1h^−1 over 7 days as described (Vera-Portocarrero et al., 2006). Minipumps were filled according to manufacturer's specifications. The use of the osmotic pump ensures a continuous delivery of morphine avoiding intermittent periods of withdrawal. The integrity of the pump delivery system was reexamined at the end of each experiment when the spinal cords were harvested.
(§2) Drug administration. The test substances fumonisin B1 (FB 1, Sigma-Aldrich, St. Louis, Mo.), myriocin (Myr Sigma-Aldrich, St. Louis, Mo.), D609 (Tricyclodecan-9-ylxanthogenate, K; Calbiochem, San Diego, Calif.), DMS (N,N-Dimethylsphingosine, Caymen Chemical, Ann Arbor, Mich.), SK-I 2-(p-hydroxyanilino)-4-(p-chlorophenyl) thiazole, Calbiochem, San Diego, Calif.) or their vehicle (0.5% in DMSO) were delivered by intrathecal (i.th) injection in rats chronically implanted with i.th cannulas as described previously (Storkson et al., 1996). Test substances were injected i.th once a day for 6 days in a total volume of 10 μl followed by a 10 μl flush with sterile physiological saline.
Behavioral tests. Thermal hyperalgesia. The method of Hargreaves and colleagues was used to assess changes in baseline nociceptive responses to a thermal nociceptive stimulus (Hargreaves et al., 1988). Animals were allowed to acclimate within a Plexiglas enclosure on a clear glass plate in a quiet testing room. A radiant heat source is focused onto the plantar aspect of the hindpaw with baseline latencies of 18-20 sec. and a maximal cutoff time of 20 sec to prevent tissue damage. The paw-withdrawal latency is determined by a motion detector activated by the paw withdrawal, stopping a timer. Foot withdrawal latencies were taken on the day before implantation of the minipumps (baseline) and subsequently on days 1, 3 and 6 of the experimental period to determine whether morphine-tolerant animals develop increased sensitivity to thermal stimulation. A significant (P<0.05) reduction in paw-withdrawal latency over time and before implantation of the osmotic minipump is characterized as thermal hyperalgesia. […]

[2] = system: Male Sprague Dawley rats; experiment: Antinociceptive tolerance (tail flick after acute morphine) in rats with chronic s.c. morphine or saline infusion; format: in vivo, rat; settings: for development of morphine antinociceptive tolerance: daily i.th for 6 days with s.c. morphine infusion, Myr 0.3, FB1 1, D609 1, DMS 0.3, SK-1 0.3 μM/day; for effect on antinociceptive responses to acute morphine: drug alone vs Veh-Sal; for effect on antinociceptive responses to acute morphine / % MPE (Tail-flick): day 6; for % MPE (Tail-flick): drug given alone i.th daily over 6 days to saline-infused rats, response to acute morphine, mean ± SEM; for effect on tail flick latencies when given alone: daily i.th 3 μM/day, saline-infused rats, vs vehicle group
Description: as §1, §2
After the Hargreave's test, the development of antinociceptive tolerance was determined in all animals as follows. Acute nociception. The tail flick test which measures, withdrawal latencies of the tail from a noxious radiant heat source was used to measure thermal nociceptive sensitivity with baseline latencies of 4-5 sec and it cut-off time of 10 sec to prevent tissue injury (D'Amour, 1941). […]. Test substances or vehicle were given on day 0-6 after completion of the behavioral tests. At the required time points, after the behavioral tests, spinal cord tissues from the lumbar, enlargement segment of the spinal cord (L4-L6) and dorsal horn tissues were removed and tissues processed for immunohistochemical, Western blot and biochemical analysis. All experiments were conducted with the experimenters blinded to treatment conditions. […]

[3] = system: S1P; experiment: S1P levels in dorsal horn tissue by ELISA; format: in vivo, rat
[4] = molecular target: S1P5 (Homo sapiens, UniProt Q9H228); settings: relative to S1P1; cited from earlier work
[5] = molecular target: S1P2 (Homo sapiens, UniProt O95136); settings: cited from earlier work
[6] = system: rats; experiment: Carrageenan-induced thermal hyperalgesia; format: in vivo, rat
[7] = Carrageenan-induced inflammation; format: in vivo; settings: intraplantar injection 15 min before carrageenan
[8] = system: Male Sprague Dawley rats; experiment: Antinociceptive tolerance (tail flick after acute morphine) in rats with chronic s.c. morphine or saline infusion; format: in vivo, rat; settings: acute i.th injection; n=4, not shown
[9] = system: Male Sprague Dawley rats; experiment: Paclitaxel-induced neuropathic pain (mechano-allodynia, mechano-hyperalgesia); format: in vivo, rat
Description: Paclitaxel-Induced: Paclitaxcel-induced pain was studied by means of the well-characterized rat model developed by Bennett in which repeated intraperitoneal (i.p) injections of low doses of paclitaxel are administered to induce neuropathic pain (methano-allodynia and mechano-hyperalgesia) with little systemic toxicity or motor impairment (Polomano et al., Pain 94, 293-304 (2001)). The behavioral responses last for several weeks to months, thus modeling painful neuropathies in patients. Paclitaxel (Parentapharm. Yardley, Pa.) or its vehicle (Cremophor EL and 95% dehydrated ethanol in 1:1 ratio) was injected i.p in rats on four alternate days (day 0, 2, 4 and 6 with a final cumulative dose of 4 mg/kg). MnTE-2-PyP^5+, W146 (source), W140 (source) or their vehicle were delivered by intrathecal (i.th) injection (total volume of 10 μl followed by a 10 μl flush with sterile physiological saline) in rats chronically implanted with i.th cannulas using the L5/L6 lumbar approach, as described previously and Commonly used for drug delivery (Ramos et al. Neuroscience 169, 1888-1900 (2010); Schoeniger-Skinner, Brain Behav Immun 21, 660-667 (2007); Doyle, et al. Neurosci Lett (2010)). Drugs were injected 30 min before paclitaxel or its vehicle from day (D) 0 and then daily up to D15. In another set of experiments, Fingolimod (Fingolimod, Cayman Chemicals, Ann Arbor, Mich.) or its vehicle (1.2% ethanol in saline) were given by intraperitoneal injection (i.p., 0.2 ml) from D0 to D15; behavioral testing was carried out on D0 and at baseline and subsequently on D12, D16 and D22.
Behavioral testing: Baseline values were taken from all rats on day 0 Baseline. Drugs or vehicles under investigation were then given, followed 30 min later by a chemotherapeutic or vehicle. Behavioral testing was subsequently carried out on D12, D16 and D22.
Mechano-Allodynia and mechano-hyperalgesia: Mechanical withdrawal thresholds were assessed with an automated electronic version of the von Frey test (dynamic plantar aesthesiometer, model 37450; Ugo Basile, Milan, Italy). Each rat was placed in a Plexiglas chamber (28×40×35-cm, wire mesh floor) and allowed to acclimate for fifteen minutes. […] The pressure evoking a clear voluntary hind-paw withdrawal response (normally 40-45 g) was recorded automatically and taken as the mechanical threshold index. Mechanical threshold was assessed three times at each time point to yield a mean value, which is reported as mean absolute threshold (grams, g). […] Mechanical-hyperalgesia was assessed by the Randall and Sellitto paw pressure test 6 using an Ugo-Basile analgesiometer, which applies a linearly increasing mechanical force to the dorsum of the rat's hind paw. […]

[10] = system: rats; experiment: Ceramide-induced thermal hyperalgesia (intraplantar); format: in vivo, rat
[11] = S1P-induced thermal hyperalgesia (intraplantar); format: in vivo; settings: intraplantar W146 15 minutes before intraplantar S1P
[12] = system: rats; experiment: Antinociceptive response to acute morphine (tail flick latency); format: in vivo, rat; settings: W146 1 pM i.th 15 min before morphine 1, 3 or 6 mg/kg i.p; tail flick 30 min after morphine
Description: Acute nociception. The tail flick test, which measures withdrawal latencies of the tail from a noxious radiant heat source, was used to measure thermal nociceptive sensitivity with baseline latencies of 2-3 sec and a cut-off time of 10 sec to prevent tissue injury (D'Amour, J Pharmacol Exp Ther 72, 74-79 (1941)). […] Test substances or vehicle were given on day 0 through 6 after completion of the behavioral tests.
(§3) Tail flick latency (s) was tested before and 30 min after morphine (FIG. 26).

[13] = system: rats; settings: rat, in vivo
Description: as §3

[14] = molecular target: S1P1 subtype, human receptor (Homo sapiens, UniProt P21453); settings: GTP-γS binding assay; cited from earlier work
[15] = molecular target: murine S1P1 subtype (Mus musculus, UniProt O08530); settings: cited from earlier work
[16] = system: other known S1P receptor subtypes; settings: at doses as high as 10-20 μM; cited from earlier work
[17] = 3 μM/day i.th co-administered with morphine infusion
[18] = daily intrathecal, W146 0.3-3 μM/day, W140 3 μM/day

murine S1P1 subtype, sequence (O08530 whole entry): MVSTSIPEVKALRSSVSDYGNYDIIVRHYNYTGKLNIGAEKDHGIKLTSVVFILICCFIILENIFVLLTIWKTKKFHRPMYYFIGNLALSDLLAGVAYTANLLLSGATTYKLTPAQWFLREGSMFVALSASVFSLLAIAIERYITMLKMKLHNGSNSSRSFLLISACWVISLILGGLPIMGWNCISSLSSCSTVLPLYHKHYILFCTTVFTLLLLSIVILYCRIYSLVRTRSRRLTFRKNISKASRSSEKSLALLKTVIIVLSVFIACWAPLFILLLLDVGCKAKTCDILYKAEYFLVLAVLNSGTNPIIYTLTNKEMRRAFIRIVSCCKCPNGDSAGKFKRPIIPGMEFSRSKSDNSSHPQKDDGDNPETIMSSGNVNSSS
S1P2, sequence (O95136 whole entry, species assumed): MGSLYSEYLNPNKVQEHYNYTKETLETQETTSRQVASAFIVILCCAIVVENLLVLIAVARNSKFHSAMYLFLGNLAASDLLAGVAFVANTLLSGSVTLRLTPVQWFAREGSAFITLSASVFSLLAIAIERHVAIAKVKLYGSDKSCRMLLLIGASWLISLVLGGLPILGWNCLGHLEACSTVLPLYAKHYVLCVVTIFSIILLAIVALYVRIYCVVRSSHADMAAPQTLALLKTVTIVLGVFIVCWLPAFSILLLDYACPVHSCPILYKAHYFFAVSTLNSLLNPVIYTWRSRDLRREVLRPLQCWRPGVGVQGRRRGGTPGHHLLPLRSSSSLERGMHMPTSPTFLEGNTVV
S1P5, sequence (Q9H228 whole entry, species assumed): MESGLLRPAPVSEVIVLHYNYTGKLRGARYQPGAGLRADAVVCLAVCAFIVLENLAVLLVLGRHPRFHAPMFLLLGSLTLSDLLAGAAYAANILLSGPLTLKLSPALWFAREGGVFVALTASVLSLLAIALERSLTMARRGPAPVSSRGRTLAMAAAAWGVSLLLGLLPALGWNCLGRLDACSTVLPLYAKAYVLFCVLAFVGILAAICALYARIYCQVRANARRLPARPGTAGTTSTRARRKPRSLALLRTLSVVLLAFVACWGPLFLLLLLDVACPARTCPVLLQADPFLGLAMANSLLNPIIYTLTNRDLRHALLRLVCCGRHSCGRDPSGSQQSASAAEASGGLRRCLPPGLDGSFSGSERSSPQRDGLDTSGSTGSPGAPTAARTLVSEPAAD
S1P1 subtype, human receptor, sequence (P21453 whole entry): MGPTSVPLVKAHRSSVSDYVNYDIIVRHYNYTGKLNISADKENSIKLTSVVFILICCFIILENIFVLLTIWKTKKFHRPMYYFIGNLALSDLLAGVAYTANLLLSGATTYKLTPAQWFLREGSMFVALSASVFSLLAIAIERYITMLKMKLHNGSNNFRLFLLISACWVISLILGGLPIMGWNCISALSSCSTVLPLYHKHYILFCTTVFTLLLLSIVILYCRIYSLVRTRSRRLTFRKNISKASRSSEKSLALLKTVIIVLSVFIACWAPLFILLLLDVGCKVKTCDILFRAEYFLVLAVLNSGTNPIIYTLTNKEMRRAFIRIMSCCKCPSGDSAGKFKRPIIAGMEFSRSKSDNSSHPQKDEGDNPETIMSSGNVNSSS

In the case of `S=C([S-])OC1CC2CC1C1CCCC21.[K+]` (stereo not drawn) [D609, Tricyclodecan-9-ylxanthogenate, K], the “development of morphine-induced hyperalgesia” value [1] is reported as “blocked”, the “effect on paw-withdrawal latencies” value [1] is reported as “did not affect” and the “Paw-Withdrawal Latency” value [1] is reported as 19 ± 0.7 s. For the same compound, the “development of morphine antinociceptive tolerance” value [2] was “blocked”, the “effect on antinociceptive responses to acute morphine” value (“effect on antinociceptive responses” for short) [2] was “did not affect” and the “% MPE (Tail-flick)” value [2] was 92 ± 3.0%. The “S1P (pg/mg tissue)” value ([3]; rat, in vivo) was 1.5 ± 0.06 pg/mg tissue, the “effect on S1P levels in spinal cord tissues” value (“effect on S1P levels” for short) ([3]; rat, in vivo) was “did not affect” and the “morphine-induced increased production of S1P in dorsal horn tissues” value (shortened to “morphine-induced increased production”) ([3]; rat, in vivo, sc) was “blocked”.

For `CCCC[C@@H](C)[C@@H](OC(=O)C[C@@H](CC(=O)O)C(=O)O)[C@H](C[C@@H](C)C[C@H](O)CCCC[C@@H](O)C[C@H](O)[C@H](C)N)OC(=O)C[C@@H](CC(=O)O)C(=O)O` [FB1, fumonisin B1], the “development of morphine-induced hyperalgesia” value [1] was “blocked”, the “effect on paw-withdrawal latencies” value [1] was “did not affect” and the “Paw-Withdrawal Latency” value [1] was 19 ± 0.8 s. For the same compound, the “development of morphine antinociceptive tolerance” value [2] was “blocked”, the “effect on antinociceptive responses” value [2] was “did not affect” and the “% MPE (Tail-flick)” value [2] was 92 ± 3.2%. For the same compound, the “S1P (pg/mg tissue)” value ([3]; rat, in vivo) was 1.4 ± 0.06 pg/mg tissue, the “effect on S1P levels” value ([3]; rat, in vivo) was “did not affect” and the “morphine-induced increased production” value ([3]; rat, in vivo, sc) was “blocked”.

For `CCCCCCCCc1ccc(CC[C@](N)(CO)COP(=O)(O)O)cc1` [Fingolimod-P], the “binding affinity for S1P5” value [4] is given as “slightly lower affinity” and the “binding affinity for S1P2” value [5] is given as “no reported affinity”.

With `CCCCCCC(=O)CCCCCC/C=C/C[C@@H](O)[C@H](O)[C@@](N)(CO)C(=O)O` [Myr, myriocin] the “development of morphine-induced hyperalgesia” value [1] was “blocked”, the “effect on paw-withdrawal latencies” value [1] was “did not affect” and the “Paw-Withdrawal Latency” value [1] was 19 ± 0.5 s. The “development of morphine antinociceptive tolerance” value [2] was “blocked”, the “effect on antinociceptive responses” value [2] was “did not affect” and the “% MPE (Tail-flick)” value [2] was 91 ± 3.0%. For the same compound, the “effect on S1P levels” value ([3]; drug alone vs Veh-Sal, day 6) was “did not affect”, the “S1P (pg/mg tissue)” value ([3]; rat, in vivo) was 1.2 ± 0.05 pg/mg tissue and the “morphine-induced increased production” value ([3]; rat, in vivo, sc) was “blocked”.

In the case of `Oc1ccc(Nc2nc(-c3ccc(Cl)cc3)cs2)cc1` [SK-1, 2-(p-hydroxyanilino)-4-(p-chlorophenyl) thiazole], the “development of morphine-induced hyperalgesia” value [1] is reported as “blocked”, the “effect on paw-withdrawal latencies” value [1] is reported as “did not affect” and the “Paw-Withdrawal Latency” value [1] is reported as 19 ± 0.7 s. For the same compound, the “development of morphine antinociceptive tolerance” value [2] was “blocked”, the “effect on antinociceptive responses” value [2] was “did not affect” and the “% MPE (Tail-flick)” value [2] was 99 ± 0.9%. For the same compound, the “morphine-induced increased production” value ([3]; daily i.th for 6 days with s.c. morphine infusion, Myr 0.3, FB1 1, D609 1, DMS 0.3, SK-1 0.3 μM/day) was “blocked”, the “effect on S1P levels” value ([3]; drug alone vs Veh-Sal, day 6) was “did not affect” and the “S1P (pg/mg tissue)” value ([3]; rat, in vivo) was 1.3 ± 0.06 pg/mg tissue. For the same compound, the carrageenan-induced thermal hyperalgesia ([6]; intraplantar SK-1 250, 500 or 1000 ng) was “attenuated in a dose-dependent manner”, the carrageenan-induced inflammation [7] was “blocks” and the “reversal of tolerance once established” value [8] was “did not reverse”.

For `CCCCCCc1cccc(NC(=O)[C@@H](N)CCP(=O)(O)O)c1` [W140], the “effect on hindpaw withdrawal latencies when given alone” value [1] was “had no effect” and the “effect on tail flick latencies when given alone” value [2] was “had no effect”.

In the case of `CCCCCCc1cccc(NC(=O)[C@H](N)CCP(=O)(O)O)c1` [W146], the “block of development of thermal hyperalgesia” value [1, 17] is reported as greater than 90%, the “effect on hindpaw withdrawal latencies when given alone” value [1] is reported as “had no effect” and the “block of development of antinociceptive tolerance” value [2, 17] is reported as greater than 90%. For the same compound, the “effect on tail flick latencies when given alone” value [2] was “had no effect”, the “baseline withdrawal thresholds when given alone” value ([9]; W146 3 μM/day, highest dose tested) was “did not affect” and the “development of paclitaxel-induced mechano-allodynia” value [9, 18] was “attenuated in a dose-dependent manner”. The “development of paclitaxel-induced mechano-hyperalgesia” value [9, 18] was “attenuated in a dose-dependent manner”, the “reversal of Paclitaxel-induced neuropathic pain” value ([9]; given i.p on day 16, behavioral testing 60 minutes later) was “reverses” and the carrageenan-induced hyperalgesia ([6]; W146, FIG. 14) was “blocks”. The “effect when given alone (no ceramide)” value [10] was “had no effect”, the ceramide-induced thermal hyperalgesia ([10]; LT1002 242 μg, LT1017 286 μg, W146 0.3, 0.6 or 1.2 μg, W140 1.2 μg) was “inhibited” and the “development of S1P-induced thermal hyperalgesia” value [11] was “blocked”. For the same compound, the “effect on dose-response to acute morphine” value [12] was “did not modify”, the observable side effects [13] was “No observable side effects” and the Ki [14] was roughly 80 nM. For the same compound, the “potency at the murine S1P1 subtype relative to human” value [15] was “equipotency” and the “antagonistic or agonistic activity against other S1P receptor subtypes” value [16] was “No-antagonistic (or agonistic) activity”.
